# Measurements published in patent US9156834B2, “Derivatives of heteroarylsulfonamides, their preparation and their application in human therapy” (PIERRE FABRE MEDICAMENT, priority 2010, dated 2015).
# Structures can show the parent of a compound that is named as a salt.
# Biological target: T1, human isoform of the Kv1.5 channels (Homo sapiens, UniProt P22460)
# T1 construct: expressed in transfected cells; host or cells: HEK293
# Assay: FLIPR thallium ion measurement on potassium channel Kv1.5
# Assay type: cell-based
# Conditions: HEK293 cells stably transfected with hKv1.5; compound 10 μM, 15 min at 37° C.; fluorescence normalised with 10 μM DPO
# Experimental: The pharmacological evaluation of the compounds on potassium channel Kv1.5 was undertaken using a 96-well plate and FLIPR technology by thallium ion measurement. The HEK293 cells, transfected in a stable manner with the human isoform of the Kv1.5 channels, are seeded 24 h before the experiment in 96-well plates ([…], 200 μl/well) with polylysine applied in the following culture medium: DMEM, 10% SVF, Penicillin/Streptomycin, G418 as the selection antibiotic.
# The FLIPR experiment is undertaken using “FLIPR Potassium Ion Channel Assay Kit”, as indicated by the manufacturer (Molecular Devices).
# Briefly, the culture medium is replaced by the solution containing the thallium marker for 90 min at 37° C. On conclusion of this step the compounds for testing are added to a final concentration of 10 μM in the well for 15 min at 37° C. The basic fluorescence is then read for 60 sec. The addition of depolarising medium (20 mM of potassium and 3 mM of final thallium) opens the potassium channels and causes an increase of the fluorescence of the thallium fluorophore corresponding to an influx of thallium ions through the hKv1.5 channels. The measurement is made 30 sec after the injection of the depolarising solution. The application of 10 μM DPO (Tocris, blocker of the Kv1.5 channels) enables the fluorescence to be normalised.
# T1 sequence (P22460 whole entry, canonical isoform): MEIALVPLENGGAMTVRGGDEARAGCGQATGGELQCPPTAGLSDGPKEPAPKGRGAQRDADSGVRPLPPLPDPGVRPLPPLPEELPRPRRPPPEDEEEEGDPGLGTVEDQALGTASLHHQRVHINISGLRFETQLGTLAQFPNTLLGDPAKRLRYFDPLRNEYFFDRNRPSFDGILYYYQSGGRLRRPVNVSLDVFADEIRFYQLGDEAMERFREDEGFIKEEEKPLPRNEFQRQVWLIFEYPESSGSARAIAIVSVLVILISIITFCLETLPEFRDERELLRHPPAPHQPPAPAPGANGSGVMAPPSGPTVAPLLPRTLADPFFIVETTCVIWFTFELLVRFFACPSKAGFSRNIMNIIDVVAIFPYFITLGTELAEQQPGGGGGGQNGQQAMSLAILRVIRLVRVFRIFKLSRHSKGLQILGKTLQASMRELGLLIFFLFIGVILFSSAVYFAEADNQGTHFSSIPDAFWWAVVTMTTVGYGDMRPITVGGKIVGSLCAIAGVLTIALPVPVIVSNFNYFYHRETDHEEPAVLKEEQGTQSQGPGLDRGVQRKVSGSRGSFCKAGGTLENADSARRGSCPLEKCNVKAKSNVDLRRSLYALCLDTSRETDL
Structure (SMILES),inhibition at 10 µM,% inhibition at 10 μM
"Cc1cccc2sc(N3CCCN(C(=O)c4ccccc4NS(=O)(=O)c4cccc5cccnc45)CC3)nc12 [Example 20, N-(2-(4-(4-methylbenzo[d]thiazol-2-yl)-1,4-diazepane-1-carbonyl)-phenyl)quinoline-8-sulfonamide]",82.8%,–
"O=C(c1ccccc1NS(=O)(=O)c1cccc2cccnc12)N1CCN(c2nc3ccc(Cl)cc3s2)CC1 [Example 18, N-(2-(4-(6-chlorobenzo[d]thiazol-2-yl)piperazine-1-carbonyl)-phenyl)quinoline-8-sulfonamide]",91.5%,–
"O=C(c1ccccc1NS(=O)(=O)c1cccc2cccnc12)N1CCN(c2nc3ccc(Cl)cc3o2)CC1 [Example 17, N-(2-(4-(6-chlorobenzo[d]oxazol-2-yl)piperazine-1-carbonyl)-phenyl)quinoline-8-sulfonamide]",70.8%,–
"O=C(c1ccc(NS(=O)(=O)c2ccccn2)cc1)N1CCN(c2nc3ccc(F)cc3o2)CC1 [Example 13, N-(4-(4-(6-fluorobenzo[d]oxazol-2-yl)piperazine-1-carbonyl)phenyl)pyridine-2-sulfonamide]",100%,–
"Cc1cccc(S(=O)(=O)Nc2cccc(C(=O)N3CCN(c4nc5ccc(Cl)cc5s4)CC3)c2)n1 [Example 12, N-(3-(4-(6-chlorobenzo[d]thiazol-2-yl)piperazine-1-carbonyl)-phenyl)-6-methylpyridine-2-sulfonamide]",52.6%,–
"O=C(c1ccccc1NS(=O)(=O)c1ccc(C(F)(F)F)cn1)N1CCN(c2nc3ccc(Cl)cc3s2)CC1 [Example 8, N-(2-(4-(6-chlorobenzo[d]thiazol-2-yl)piperazine-1-carbonyl)phenyl)-5-(trifluoromethyl)pyridine-2-sulfonamide]",94.7%,–
"O=C(c1ccccc1NS(=O)(=O)c1ccccn1)N1CCN(c2nc3ccc(Cl)cc3s2)CC1 [Example 4, N-(2-(4-(6-chlorobenzo[d]thiazol-2-yl)piperazine-1-carbonyl)phenyl)pyridine-2-sulfonamide hydrochloride]",100%,–
"O=C(c1ccc(NS(=O)(=O)c2ccccn2)cc1)N1CCN(c2nc3ccc(Cl)cc3o2)CC1 [Example 14, N-(4-(4-(6-chlorobenzo[d]oxazol-2-yl)piperazine-1-carbonyl)phenyl)pyridine-2-sulfonamide]",68.7%,–
"O=C(c1ccccc1NS(=O)(=O)c1cccc2cccnc12)N1CCN(c2nc3ccc(OC(F)(F)F)cc3s2)CC1 [Example 19, N-(2-(4-(6-(trifluoromethoxy)benzo[d]thiazol-2-yl)piperazine-1-carbonyl)phenyl)quinoline-8-sulfonamide]",50.2%,–
"O=C(c1cccc(NS(=O)(=O)c2ccccn2)c1)N1CCN(c2nc3ccc(Cl)cc3o2)CC1 [Example 10, N-(3-(4-(6-chlorobenzo[d]oxazol-2-yl)piperazine-1-carbonyl)-phenyl)pyridine-2-sulfonamide]",58.9%,–
"O=C(c1ccccc1NS(=O)(=O)c1ccc(C(F)(F)F)cn1)N1CCN(c2nc3ccc(F)cc3o2)CC1 [Example 1, N-(2-(4-(6-fluorobenzo[d]oxazol-2-yl)piperazine-1-carbonyl)phenyl)-5-(trifluoromethyl)pyridine-2-sulfonamide]",61.4%,–
"O=C(c1ccccc1NS(=O)(=O)c1cccc2cccnc12)N1CCN(c2nc3ccc(Br)cc3s2)CC1 [Example 16, N-(2-(4-(6-bromobenzo[d]thiazol-2-yl)piperazine-1-carbonyl)phenyl)-quinoline-8-sulfonamide]",68%,–
"Cc1cccc(S(=O)(=O)Nc2ccccc2C(=O)N2CCN(c3nc4ccc(Br)cc4s3)CC2)n1 [Example 9, N-(2-(4-(6-bromobenzo[d]thiazol-2-yl)piperazine-1-carbonyl)phenyl)-6-methylpyridine-2-sulfonamide dihydrochloride]",62.8%,–

# Second part, the molecule after the results:
inhibition at 10 µM,% inhibition at 10 μM,Structure (SMILES)
70.2%,–,"O=C(c1ccc(NS(=O)(=O)c2ccccn2)cc1)N1CCN(c2nc3ccc(Cl)cc3s2)CC1 [Example 15, N-(4-(4-(6-chlorobenzo[d]thiazol-2-yl)piperazine-1-carbonyl)-phenyl)pyridine-2-sulfonamide]"
100%,–,"O=C(c1ccccc1NS(=O)(=O)c1ccccn1)N1CCN(c2nc3ccc(F)cc3s2)CC1 [Example 2, N-(2-(4-(6-fluorobenzo[d]thiazol-2-yl)piperazine-1-carbonyl)phenyl)-pyridine-2-sulfonamide]"
90.2%,–,"O=S(=O)(Nc1ccccc1OC1CCN(c2nc3ccccc3s2)CC1)c1ccccn1 [Example 25, N-(2-(1-(benzo[d]thiazol-2-yl)piperidin-4-yloxy)phenyl)pyridine-2-sulfonamide]"
54.1%,–,"O=S(=O)(Nc1ccccc1OCC1CCN(c2nc3ccc(Cl)cc3s2)C1)c1ccccn1 (stereo not shown) [Example 30, N-(2-((1-(6-chlorobenzo[d]thiazol-2-yl)pyrrolidin-3-yl)methoxy)phenyl)pyridine-2-sulfonamide]"
–,100%,"O=C(c1ccccc1NS(=O)(=O)c1ccccn1)N1CCN(c2nc3ccc(Br)cc3s2)CC1 [Example 3, N-(2-(4-(6-bromobenzo[d]thiazol-2-yl)piperazine-1-carbonyl)phenyl)-pyridine-2-sulfonamide]"
94.9%,–,"O=C(c1ccccc1NS(=O)(=O)c1ccccn1)N1CCN(c2nc3cc(C(F)(F)F)ccc3s2)CC1 [Example 7, N-(2-(4-(5-(trifluoromethyl)benzo[d]thiazol-2-yl)piperazine-1-carbonyl)phenyl)pyridine-2-sulfonamide]"
75.1%,–,"O=C(c1cccc(NS(=O)(=O)c2ccccn2)c1)N1CCN(c2nc3ccc(Cl)cc3s2)CC1 [Example 11, N-(3-(4-(6-chlorobenzo[d]thiazol-2-yl)piperazine-1-carbonyl)phenyl)-pyridine-2-sulfonamide]"
81%,–,"O=S(=O)(Nc1ccccc1OC1CCN(c2nc3cc(Cl)ccc3o2)CC1)c1ccccn1 [Example 24, N-(2-(1-(5-chlorobenzo[d]oxazol-2-yl)piperidin-4-yloxy)phenyl)-pyridine-2-sulfonamide]"
51.8%,–,"CC(C)(C)c1ccc2oc(N3CCC(Oc4ccccc4NS(=O)(=O)c4ccccn4)CC3)nc2c1 [Example 23, N-(2-(1-(5-tert-butylbenzo[d]oxazol-2-yl)piperidin-4-yloxy)phenyl)pyridine-2-sulfonamide]"
54.6%,–,"Cc1ccc2nc(N3CCC(Oc4ccccc4NS(=O)(=O)c4ccccn4)CC3)oc2c1 [Example 21, N-(2-(1-(6-methylbenzo[d]oxazol-2-yl)piperidin-4-yloxy)phenyl)pyridine-2-sulfonamide]"
91.8%,–,"O=C(c1ccccc1NS(=O)(=O)c1ccccn1)N1CCN(c2nc3cccc(Cl)c3s2)CC1 [Example 6, N-(2-(4-(7-chlorobenzo[d]thiazol-2-yl)piperazine-1-carbonyl)phenyl)-pyridine-2-sulfonamide]"
90%,–,"Cc1cccc2sc(N3CCN(C(=O)c4ccccc4NS(=O)(=O)c4ccccn4)CC3)nc12 [Example 5, N-(2-(4-(4-methylbenzo[d]thiazol-2-yl)piperazine-1-carbonyl)phenyl)-pyridine-2-sulfonamide]"
56%,–,"Cc1cccc2sc(N3CCC(COc4ccccc4NS(=O)(=O)c4ccccn4)C3)nc12 (stereo not shown) [Example 31, N-(2-((1-(4-methylbenzo[d]thiazol-2-yl)pyrrolidin-3-yl)methoxy)phenyl)pyridine-2-sulfonamide]"
65.8%,–,O=S(=O)(Nc1ccccc1OC1CCN(c2nc3ccc(Cl)cc3s2)CC1)c1ccccn1 [Example 26]
58.8%,–,"O=S(=O)(Nc1ccccc1OC1CCN(c2nc3ccc(Cl)cc3o2)CC1)c1ccccn1 [Example 22, N-(2-(1-(6-chlorobenzo[d]oxazol-2-yl)piperidin-4-yloxy)phenyl)-pyridine-2-sulfonamide]"
100%,–,"O=S(=O)(Nc1ccccc1OC1CCN(c2nc3ccc(Br)cc3s2)CC1)c1ccccn1 [Example 27, N-(2-(1-(6-bromobenzo[d]thiazol-2-yl)piperidin-4-yloxy)phenyl)-pyridine-2-sulfonamide]"
76%,–,"O=S(=O)(Nc1ccccc1OCC1CCN(c2nc3ccccc3s2)C1)c1ccccn1 (stereo not shown) [Example 28, N-(2-((1-(benzo[d]thiazol-2-yl)pyrrolidin-3-yl)methoxy)phenyl)-pyridine-2-sulfonamide]"
53.7%,–,"COc1cccc2sc(N3CCC(COc4ccccc4NS(=O)(=O)c4ccccn4)C3)nc12 (stereo not shown) [Example 32, N-(2-((1-(4-methoxybenzo[d]thiazol-2-yl)pyrrolidin-3-yl)methoxy)-phenyl)pyridine-2-sulfonamide]"
64.5%,–,"O=S(=O)(Nc1ccccc1OCC1CCN(c2nc3ccc(F)cc3s2)C1)c1ccccn1 (stereo not shown) [Example 29, N-(2-((1-(6-fluorobenzo[d]thiazol-2-yl)pyrrolidin-3-yl)methoxy)phenyl)pyridine-2-sulfonamide]"

# System: not given
# Assay: not given
# Conditions: not given
row,melting point,Structure (SMILES)
1,102 °C,"O=C(c1ccccc1NS(=O)(=O)c1ccccn1)N1CCN(c2nc3ccc(Br)cc3s2)CC1 [Example 3, N-(2-(4-(6-bromobenzo[d]thiazol-2-yl)piperazine-1-carbonyl)phenyl)-pyridine-2-sulfonamide]"
2,180 °C,"Cc1cccc(S(=O)(=O)Nc2ccccc2C(=O)N2CCN(c3nc4ccc(Br)cc4s3)CC2)n1 (as salt: hydrochloride) [Example 9, N-(2-(4-(6-bromobenzo[d]thiazol-2-yl)piperazine-1-carbonyl)phenyl)-6-methylpyridine-2-sulfonamide dihydrochloride]"
